What was measured:
[1] = system: SARS-CoV-2; assay type: cell-based
[2] = system: Vero-E6 and TMPRSS2-over-expressing Vero-E6 cells

| SMILES | block of cytopathic effect of SARS-CoV-2 (FIG. 2) [1] | toxicity [2] |
| --- | --- | --- |
| O=C(Oc1cncc(Cl)c1)c1cccc2[nH]ccc12 [GRL-0920S] | significantly block the cytopathic effect | without significant toxicity |
| C=CCn1ccc2c(C(=O)Oc3cncc(Cl)c3)cccc21 [GRL-0820S] | significantly block the cytopathic effect | – |

From patent US20230183207A1 (priority 2020, published 2023)
